In the NIST ThermoML archive (doi:10.1016/j.fluid.2005.09.012):
± gives the expanded uncertainty stated by the source.

What was measured:
[1] = refractive index (Na D-line) (dimensionless); settings: 293.15 K; 101.33 kPa; Liquid
[2] = Liquid; for mass density: 293.15 K, 101.33 kPa

| SMILES | refractive index [1] | mass density [2] [kg/m3] | also measured |
| --- | --- | --- | --- |
| Cc1ccccc1C [1,2-dimethylbenzene] | 1.5055 ± 0.0017 | 880.1 ± 2.2 | vapor or sublimation pressure ([2]; 415.55 K): 95.75 ± 9 kPa |
| ClC(Cl)=C(Cl)Cl [tetrachloroethene] | 1.505 ± 0.0017 | 1625 ± 4.6 | vapor or sublimation pressure ([2]; 392.25 K): 95.75 ± 9 kPa |
| Cc1ccccc1O [2-methylphenol] | 1.5467 ± 0.0017 | 1046 ± 2.7 | vapor or sublimation pressure ([2]; 461.85 K): 95.75 ± 9.6 kPa |
| Cc1ccc(C)cc1 [1,4-dimethylbenzene] | 1.4858 ± 0.0017 | 861 ± 2.1 | vapor or sublimation pressure ([2]; 409.35 K): 95.75 ± 9 kPa |
| Cc1cccc(C)c1 [1,3-dimethylbenzene] | 1.4972 ± 0.0017 | 864.4 ± 2.1 | vapor or sublimation pressure ([2]; 410.35 K): 95.75 ± 9 kPa |
| ClC=C(Cl)Cl [trichloroethene] | 1.4782 ± 0.0017 | 1464 ± 4.1 | vapor or sublimation pressure ([2]; 357.95 K): 95.75 ± 9 kPa |
| ClC(Cl)C(Cl)Cl [1,1,2,2-tetrachloroethane] | 1.494 ± 0.0017 | 1593 ± 4.5 | vapor or sublimation pressure ([2]; 417.35 K): 95.75 ± 9 kPa |
| CCCCCCC [heptane] | 1.3876 ± 0.0017 | 683.8 ± 1.5 | vapor or sublimation pressure ([2]; 369.75 K): 95.75 ± 9 kPa |
| ClCCCl [1,2-dichloroethane] | 1.4196 ± 0.0017 | 1252.9 ± 3.4 | vapor or sublimation pressure ([2]; 355.25 K): 95.75 ± 9 kPa |
